Experimental data taken from patent publication US11214540B2, “Compositions for treating neurodegenerative diseases” (COGNITION THERAPEUTICS, INC., priority 2017, dated 2022).

Assay: log P
Type: physicochemical
Details: for logP: octanol/water
Source text: The term “log P” refers to the partition coefficient of a compound. The partition coefficient is the ratio of concentrations of un-ionized compound in each of two solution phases, for example, octanol and water. To measure the partition coefficient of ionizable solute compounds, the pH of the aqueous phase is adjusted such that the predominant form of the compound is un-ionized. The logarithm of the ratio of concentrations of the un-ionized solute compound in the solvents is called log P. The log P is a measure of lipophilicity. For example, log Poct/wat=log([solute]octanol/[solute]un-ionized,water).
Combined Results for particular compounds described herein, with respect to log P, membrane trafficking (uM), sigma-2 receptor affinity, sigma-1 receptor affinity microsomal stability in mouse liver microsomes (MLM) (t1/2, min), t1/2 normalized to CT)10914 and in vitro toxicity potassium channel hERG (IC50, nM) are provided in Table 1: […]

| SMILES | log P | logP |
| --- | --- | --- |
| COC[C@H]1CCCN1C(C=C(C)C)CC(C)(C)c1ccc(Cl)cc1 (stereo partly shown) [Compound 246] | 5.68 | – |
| COC[C@H]1CCCN1C(C=C(C)C)CC(C)(C)c1ccc(C(F)(F)F)cc1 (stereo partly shown) [Compound 247] | 5.95 | – |
| CCOC(=O)C1CCN(C(C=C(C)C)CC(C)(C)c2ccc(Cl)cc2)CC1 (stereo not shown) [Compound 248] | 5.84 | – |
| COC[C@H]1CCCN1C(C=C(C)C)CC(C)(C)c1ccc(F)cc1 (stereo partly shown) [Compound 251] | 5.22 | – |
| COc1cc(CCC(C)(C)N2Cc3cccc(C(=O)N4CCN(C(=O)[C@@H](N)Cc5ccccc5)CC4)c3C2)ccc1O [Compound 259] | 4.03 | – |
| COc1cc(CCC(C)(C)N2Cc3cccc(C(=O)N4CCN(C(=O)[C@@H]5CCCN5)CC4)c3C2)ccc1O [Compound 260] | 2.46 | – |
| COCCOCCC1CCN([C@H](C=C(C)C)CC(C)(C)c2ccc(C(F)(F)F)cc2)CC1 [Compound 263] | 6.28 | – |
| COCCOCCC1CCN([C@@H](C=C(C)C)CC(C)(C)c2ccc(C(F)(F)F)cc2)CC1 [Compound 264] | 6.28 | – |
| CC(C)=C[C@@H](CC(C)(C)c1ccc(C(F)(F)F)cc1)N1CCC(C)(O)CC1 [Compound 266] | 5.13 | – |
| COc1cc(CCC(C)(C)N2Cc3cccc(C(=O)N4CCN(C(=O)[C@H](C)N)CC4)c3C2)ccc1O [Compound 269] | 2.2 | – |
| COc1cc(CCC(C)(C)N2Cc3cccc(C(=O)N4CCN(C(=O)C(Cc5ccccc5)N(C)C)CC4)c3C2)ccc1O (stereo not shown) [Compound 271] | 4.85 | – |
| COC(=O)N1CCN(C(=O)c2cccc3c2CN(C(C)(C)CCc2ccc(O)c(OC)c2)C3)CC1 [Compound 272] | 3.35 | – |
| COc1cc(CCC(C)(C)N2Cc3cccc(C(=O)N4CCN(C(=O)[C@@H]5CCCN5C)CC4)c3C2)ccc1O [Compound 274] | 3.24 | – |
| COC[C@@H]1CCCN1C(C)CC(C)(C)c1ccc(C(F)(F)F)cc1 (stereo partly shown) [Compound 276] | 4.95 | – |
| COc1cc(CCC(C)(C)N2Cc3cccc(C(=O)N4CCN(C(=O)CNC(C)=O)CC4)c3C2)ccc1O [Compound 279] | 1.63 | – |
| COc1cc(CCC(C)(C)N2Cc3cccc(C(=O)N4CCN(C(=O)[C@@H](Cc5ccccc5)NC(C)=O)CC4)c3C2)ccc1O [Compound 280] | 3.85 | – |
| COc1cc(CCC(C)(C)N2Cc3cccc(C(=O)N4CCN(C(=O)[C@H](C)O)CC4)c3C2)ccc1O [Compound 281] | 2.48 | – |
| COc1cc(CCC(C)(C)N2Cc3cccc(C(=O)N4CCN(C(=O)[C@@H]5CCCN5C(C)=O)CC4)c3C2)ccc1O [Compound 282] | 2.47 | – |
| CC(C)(CCN1CCC(CCO)CC1)c1ccc(Cl)cc1 [Compound 284] | 3.98 | – |
| CC(C)(CCN1CCC(O)(c2ccccc2)CC1)c1ccc(Cl)cc1 [Compound 285] | 4.81 | – |
| CCOC(=O)C1CCN(C(C=C(C)C)CC(C)(C)c2ccc(C(F)(F)F)cc2)CC1 (stereo not shown) [Compound 286] | 6.11 | – |
| COC(=O)[C@H]1CCCN1CCC(C)(C)c1ccc(Cl)cc1 [Compound 290] | 4.08 | – |
| COC(=O)[C@H]1CCCN1CCC(C)(C)c1ccccc1 [Compound 294] | 3.48 | – |

| SMILES | log P | logP |
| --- | --- | --- |
| COC(=O)C1CCN(CCC(C)(C)c2ccccc2)CC1 [Compound 295] | 3.45 | – |
| CC1(O)CCN(CCC(C)(C)c2ccccc2)CC1 [Compound 296] | 2.83 | – |
| CC(C)(CCN1CCC(C)(c2ccccc2)CC1)c1ccccc1 [Compound 297] | 5.81 | – |
| COC[C@H]1CCCN1CCC(C)(C)c1ccc(Cl)cc1 [Compound 298] | 4.26 | – |
| CCOC(=O)C1CCN(CCC(C)(C)c2ccccc2)CC1 [Compound 299] | 3.81 | – |
| COC[C@@H]1CCCN1CCC(C)(C)c1ccccc1 [Compound 302] | 3.65 | – |
| CC(C)(CCN1CCC(CO)CC1)c1ccccc1 [Compound 308] | 3.01 | – |
| COC1CCN(CCC(C)(C)c2ccccc2)CC1 [Compound 310] | 3.2 | – |
| CCOC(=O)C1CCN(CCC(C)(C)c2ccc(C(F)(F)F)cc2)CC1 [Compound 311] | 4.69 | – |
| COC[C@H]1CCCN1CCC(C)(C)c1ccc(C(F)(F)F)cc1 [Compound 312] | 4.53 | – |
| CC(C)(CCN1CCC(C2CCOCC2)CC1)c1ccccc1 [Compound 313] | 4.28 | – |
| COCCOCCC1CCN(CCC(C)(C)c2ccc(C(F)(F)F)cc2)CC1 [Compound 314] | 4.85 | – |
| COC[C@H]1CCCN1CCC(C)(C)c1ccc(F)cc1 [Compound 318] | 3.8 | – |
| COC[C@@H]1CCCN1CCC(C)(C)c1ccc(F)cc1 [Compound 319] | 3.8 | – |
| COC(=O)C1CCCN1CCC(C)(C)c1ccc(F)cc1 (stereo not shown) [Compound 320] | 3.62 | – |
| CCOC(=O)C1CCN(CCC(C)(C)c2ccc(F)cc2)CC1 [Compound 322] | 3.95 | – |
| COCCCC1CCN(CCC(C)(C)c2ccccc2)CC1 [Compound 325] | 4.47 | – |
| COC(=O)C1CCN(CCC(C)(C)c2ccc(F)cc2)CC1 [Compound 326] | 3.6 | – |
| COC1CCN(CCC(C)(C)c2ccc(C(F)(F)F)cc2)CC1 [Example 191] | – | 4.07 |
| CC(C)(CCN1CCC(CO)CC1)c1ccc(C(F)(F)F)cc1 [Example 306] | – | 3.89 |
| CC(C)(CCN1CCC(O)(c2ccccc2)CC1)c1ccc(C(F)(F)F)cc1 [Example 307] | – | 5.08 |
| COC[C@@H]1CCCN1CCC(C)(C)c1ccc(C(F)(F)F)cc1 [Example 317] | – | 4.53 |

Now from value to compound:

| log P | logP | SMILES |
| --- | --- | --- |
| 2.62 | – | COc1cc(CCC(C)(C)N2Cc3cccc(C(=O)N4CCN(C(=O)CN(C)C)CC4)c3C2)ccc1O [Compound 258] |
| 5.13 | – | CC(C)=C[C@H](CC(C)(C)c1ccc(C(F)(F)F)cc1)N1CCC(C)(O)CC1 [Compound 265] |
| 5.37 | – | CCOC(=O)C1CCN(C(C=C(C)C)CC(C)(C)c2ccc(F)cc2)CC1 (stereo not shown) [Compound 267] |
| 4.83 | – | CCOC(=O)C1CCN(C(C)CC(C)(C)c2ccc(Cl)cc2)CC1 (stereo not shown) [Compound 268] |
| 1.81 | – | COc1cc(CCC(C)(C)N2Cc3cccc(C(=O)N4CCN(C(=O)CN)CC4)c3C2)ccc1O [Compound 270] |
| 5.95 | – | COC[C@@H]1CCCN1C(C=C(C)C)CC(C)(C)c1ccc(C(F)(F)F)cc1 (stereo partly shown) [Compound 275] |
| 5.11 | – | CCOC(=O)C1CCN(C(C)CC(C)(C)c2ccc(C(F)(F)F)cc2)CC1 (stereo not shown) [Compound 277] |
| 5.23 | – | CCOC(=O)C1CCN(C(C=C(C)C)CC(C)(C)c2ccccc2)CC1 (stereo not shown) [Compound 278] |
| 3.62 | – | CC(C)(CCN1CCC(CO)CC1)c1ccc(Cl)cc1 [Compound 283] |
| 4.41 | – | CCOC(=O)C1CCN(CCC(C)(C)c2ccc(Cl)cc2)CC1 [Compound 287] |
| 3.1 | – | CC(C)(CCN1CC[C@@H](O)C1)c1ccc(Cl)cc1 [Compound 288] |
| 4.26 | – | COC[C@@H]1CCCN1CCC(C)(C)c1ccc(Cl)cc1 [Compound 289] |
| 4.06 | – | COC(=O)C1CCN(CCC(C)(C)c2ccc(Cl)cc2)CC1 [Compound 291] |
| 3.48 | – | COC(=O)[C@@H]1CCCN1CCC(C)(C)c1ccccc1 [Compound 293] |
| 3.65 | – | COC[C@H]1CCCN1CCC(C)(C)c1ccccc1 [Compound 300] |
| 2.49 | – | CC(C)(CCN1CC[C@@H](O)C1)c1ccccc1 [Compound 301] |
| 4.58 | – | COCCOCCC1CCN(CCC(C)(C)c2ccc(Cl)cc2)CC1 [Compound 303] |
| 3.38 | – | CC(C)(CCN1CCC(CCO)CC1)c1ccccc1 [Compound 304] |
| 3.1 | – | COc1cc(CCC(C)(C)N2Cc3cccc(C(=O)N4CCN(C(=O)OCCOC(C)=O)CC4)c3C2)ccc1O [Compound 305] |
| 3.96 | – | COc1cc(CCC(C)(C)N2Cc3cccc(C(=O)N4CCN(C(=O)OCc5oc(=O)oc5C)CC4)c3C2)ccc1O [Compound 309] |
| 3.37 | – | CC(C)(CCN1CC[C@@H](O)C1)c1ccc(C(F)(F)F)cc1 [Compound 315] |
| 4.34 | – | CC(C)(CCN1CCC(C)(c2ccccc2)CC1)c1ccc(F)cc1 [Compound 316] |
| 4.61 | – | COCCCC1CCN(CCC(C)(C)c2ccc(F)cc2)CC1 [Compound 321] |
| 4.15 | – | C[C@@H]1CCN(CCC(C)(C)c2ccc(F)cc2)C1 [Compound 323] |
| 5.07 | – | COCCCC1CCN(CCC(C)(C)c2ccc(Cl)cc2)CC1 [Compound 324] |
